Legend:
Format in all cases: functional
[1] = Antiproliferative activity against human MiaPaCa cells assessed as growth inhibition after 48 hrs by SRB assay; conditions: MIA PaCa-2, 48 h
MDA-MB-231 = assay: Antiproliferative activity against human MDA-MB-231 cells assessed as growth inhibition after 48 hrs by SRB assay; conditions: MDA-MB-231, 48 h
[2] = Antiproliferative activity against human IMR32 cells assessed as growth inhibition after 48 hrs by SRB assay; conditions: IMR-32, 48 h
HeLa = assay: Antiproliferative activity against human HeLa cells assessed as growth inhibition after 48 hrs by SRB assay

| SMILES | GI50 ([1]; read-out: GI50) [µM] | GI50 ([1]; read-out: pGI50 (converted)) [µM] | GI50 (MDA-MB-231; read-out: GI50) [µM] | GI50 ([2]; read-out: GI50) [µM] | GI50 ([2]; read-out: pGI50 (converted)) [µM] | GI50 (HeLa; read-out: GI50) [µM] | GI50 (HeLa; read-out: pGI50 (converted)) [µM] | GI50 (MDA-MB-231; read-out: pGI50 (converted)) [µM] |
| --- | --- | --- | --- | --- | --- | --- | --- | --- |
| COc1cc(OC)c(-c2nc3ccccc3c(=O)n2C/C=C/c2ccc(-c3cnc4ccccc4n3)cc2)c(OC)c1 | 2.2 | 2.2 | < 0.01 | 0.77 | 0.771 | 2.5 | 2.5 |  |
| COc1ccc(-c2nc3ccccc3c(=O)n2C/C=C/c2ccc(-c3cnc4ccccc4n3)cc2)c(F)c1 | 28.6 | 28.6 | < 0.01 | 1.2 | 1.2 | 0.9 | 0.902 |  |
| COc1ccc(-c2nc3ccccc3c(=O)n2C/C=C/c2ccc(-c3cnc4ccccc4n3)cc2)c(OC)c1 | 13.6 | 13.6 | < 0.01 | 6.3 | 6.31 | 31.6 | 31.6 |  |
| O=c1c2ccccc2nc(-c2ccc(C(F)(F)F)cc2)n1C/C=C/c1ccc(-c2cnc3ccccc3n2)cc1 | 10 | 10 | 1.8 | 5.3 | 5.31 | 17.7 | 17.7 | 1.8 |
| COc1cccc(-c2nc3ccccc3c(=O)n2C/C=C/c2ccc(-c3cnc4ccccc4n3)cc2)c1 | 2 | 2 | 1.25 | 0.32 | 0.321 | 0.12 | 0.12 | 1.25 |
| Cc1ccc(-c2nc3ccccc3c(=O)n2C/C=C/c2ccc(-c3cnc4ccccc4n3)cc2)cc1 | 11.4 | 11.4 | 1.24 | 2.2 | 2.2 | 9.2 | 9.2 | 1.24 |
| O=c1c2ccccc2nc(-c2ccccc2)n1C/C=C/c1ccc(-c2cnc3ccccc3n2)cc1 | 2.8 | 2.81 | 6.4 | 1.01 | 1.01 | 5.1 | 5.11 | 6.41 |
| O=c1c2ccccc2nc(-c2ccc([N+](=O)[O-])cc2)n1C/C=C/c1ccc(-c2cnc3ccccc3n2)cc1 | 6.1 | 6.11 | 0.14 | < 0.01 |  | 0.9 | 0.902 | 0.14 |
| Cc1nc2ccccc2c(=O)n1CCCc1ccc(-c2cnc3ccccc3n2)cc1 | 1.2 | 1.2 | 0.62 | 0.22 | 0.22 | 0.032 | 0.0321 | 0.621 |
| O=c1c2ccccc2nc(-c2ccc(F)cc2)n1C/C=C/c1ccc(-c2cnc3ccccc3n2)cc1 | < 0.01 |  | 1.7 | 65 | 65 | 16.1 | 16.1 | 1.7 |
| COc1ccc(-c2nc3ccccc3c(=O)n2C/C=C/c2ccc(-c3cnc4ccccc4n3)cc2)cc1 | 2.1 | 2.1 | 0.64 | 2.8 | 2.81 | 1.2 | 1.2 | 0.641 |
| O=c1c2ccccc2nc(-c2ccc(Cl)cc2)n1C/C=C/c1ccc(-c2cnc3ccccc3n2)cc1 | 6.4 | 6.41 | 0.57 | < 0.01 |  | 69.5 | 69.5 | 0.57 |
| COc1ccc(OC)c(-c2nc3ccccc3c(=O)n2C/C=C/c2ccc(-c3cnc4ccccc4n3)cc2)c1 | 1.8 | 1.8 | 1.36 | 0.28 | 0.282 | 0.038 | 0.038 | 1.36 |
| O=c1c2ccccc2nc(-c2ccc(Cl)cc2Cl)n1C/C=C/c1ccc(-c2cnc3ccccc3n2)cc1 | 4.4 | 4.41 | 0.4 | 2.6 | 2.6 | > 100 |  | 0.401 |
| CCOc1ccc(-c2nc3ccccc3c(=O)n2C/C=C/c2ccc(-c3cnc4ccccc4n3)cc2)cc1 | 2.2 | 2.2 | > 100 | 0.47 | 0.471 | > 100 |  |  |
| COc1cccc2c1C(=O)c1c(O)c3c(c(O)c1C2=O)C[C@@](O)(C(=O)CO)C[C@@H]3O[C@H]1C[C@H](N)[C@H](O)[C@H](C)O1 [DOXORUBICIN] | 0.097 | 0.097 | 0.085 | 0.023 | 0.023 | 0.073 | 0.0731 | 0.0851 |
| CC(=O)O[C@H]1C(=O)[C@@]2(C)[C@H]([C@H](OC(=O)c3ccccc3)[C@]3(O)C[C@H](OC(=O)[C@H](O)[C@@H](NC(=O)c4ccccc4)c4ccccc4)C(C)=C1C3(C)C)[C@]1(OC(C)=O)CO[C@@H]1C[C@@H]2O [PACLITAXEL] | 0.056 | 0.0561 | 0.091 | 0.075 | 0.0752 | 0.025 | 0.025 | 0.0912 |
